Experimental data from US9969723B2, “3-(4-(benzyloxy)phenyl)hex-4-ynoic acid derivative, method of preparing same and pharmaceutical composition for preventing and treating metabolic disease including same as effective ingredient” (HYUNDAI PHARM CO., LTD, priority 2014, dated 2018).
Read-outs that look alike come from different tables or passages of the source.

Legend:
GPR40 = GPR40 (Homo sapiens (Human), UniProt O14842); experiment: GPR40 protein activity by intracellular calcium concentration (Fluo-4, Flexstation 3) in transfected HEK-293 cells; assay type: cell-based; details: HEK-293 cells transfected with human GPR40, intracellular calcium
Experimental: The GPR40 protein activity according to the novel 3-(4-(benzyloxy)phenyl)hex-4-inoic acid derivative of the present invention was measured by investigating the changes in intracellular calcium concentration affected by the GRP40 activation. First, HEK-293 cells were transfected with human GPR40 DNA (Origene, RC218370) by using Fugene HD (Promega, E2311). […] 24 hours later, the cell culture medium was replaced with Dulbecco's Modified Eagle Medium (DMEM, 50 μl/well) supplemented with 1% fetal bovine serum (FBS). To measure the calcium concentration, 50 μl of Fluo-4 reagent (Invitrogen, F10471) was added to each well, followed by culture in a 37° C. incubator for 2 hours. […] 2 hours after the culture began, those prepared samples were automatically injected to the cells by using Flexstation 3 (Molecular Devices). Then, intracellular calcium concentration was measured for 120 seconds by using SoftMax® Pro software. At this time, dimethylsulfoxide (DMSO) was injected to the cells for the non-treated group, followed by measuring the calcium concentration therein. The GPR40 protein activity was calculated by the below mathematical formula 1 with the results of calcium concentration measurement. GPR40 activity=(intracellular calcium concentration increased by the sample)/(intracellular calcium concentration of the non-treated group)×100 [Mathematical Formula 1]

CYP3A4 = CYP3A4 (Homo sapiens (Human), UniProt P08684); experiment: CYP inhibition (BD GENTEST kit); assay type: in vitro ADME; details: pH 7.4, read-out: CYP inhibition (%) 3A4
Text: (§1) CYP is the enzyme involved in drug metabolism. So, the inhibition of this enzyme can change the prediction of dose of a drug and toxicity caused by the co-treatment with other drugs. Therefore, the inventors measured the inhibitory effect of the compounds of Examples of the invention on endogenous CYP3A4, CYP2C9, CYP1A2, CYP2D6, and CYP2C19. At this time, Invitrogen (P2862) was used as the CYP2D6 inhibition kit, and BD GENTEST (459100, 459300, 459400, 459500) was used as the CYP1A2, CYP2C9, CYP2C19, and CYP3A4 inhibition kit. To prepare the Invitrogen kit, the test sample was diluted in distilled water at 2.5× of the final experimental concentration.
(§2) The test sample for BD GENTEST kit was diluted in acetonitrile at 50× of the final experimental concentration. NADPH-coenzyme mixture was prepared by diluting the coenzyme, G6PDH, and regulatory protein included in the kit with distilled water at the concentration instructed by the kit. The prepared 50× sample (4 μL) and the NADPH-coenzyme mixture (96 μL) were mixed in each well of U-bottom 96-well plate, followed by pre-culture for 10 minutes in a 37° C. incubator. Enzyme/substrate mixed solution was prepared by diluting the buffer (0.5 M potassium phosphate, pH 7.4), each CYP450 enzyme/substrate mixed solution included in the kit with distilled water at the instructed concentration. Upon completion of the pre-culture, 100 μL of the enzyme/substrate mixed solution was added in each well of the plate, followed by culture in a 37° C. incubator for 15 minutes (CYP 1A2), 30 minutes (CYP 3A4 and CYP 2C19) or 1 and half hours (CYP 2C9). Upon completion of the reaction, the reactant was transferred onto the white plate, and then fluorescence was measured with a microplate reader (CYP 1A2 and CYP 2C19 excitation wavelength: 410 nm, absorption wavelength: 460 nm; CYP 2C9 and CYP 3A4 excitation wavelength: 409 nm, absorption wavelength: 530 nm). The values obtained above were converted into % as the inhibition rate of the sample by the value of the non-treated group.

CYP1A2 = CYP1A2 (Homo sapiens (Human), UniProt P05177); experiment: CYP inhibition (BD GENTEST kit); assay type: in vitro ADME; details: pH 7.4
Experimental: as §1, with “At this time, Invitrogen (P2862) was used as the CYP2D6 inhibition kit, and BD GENTEST (459100, 459300, 459400, 459500) was used as the CYP1A2, CYP2C9, CYP2C19, and CYP3A4 inhibition kit.” left out
as §2, with “Upon completion of the reaction, the reactant was transferred onto the white plate, and then fluorescence was measured with a microplate reader (CYP 1A2 and CYP 2C19 excitation wavelength: 410 nm, absorption wavelength: 460 nm; CYP 2C9 and CYP 3A4 excitation wavelength: 409 nm, absorption wavelength: 530 nm).” left out

CYP2C19 = CYP2C19 (Homo sapiens (Human), UniProt P33261); experiment: CYP inhibition (BD GENTEST kit); assay type: in vitro ADME; details: pH 7.4, read-out: CYP inhibition (%) 2C19
Experimental: as §1, with “At this time, Invitrogen (P2862) was used as the CYP2D6 inhibition kit, and BD GENTEST (459100, 459300, 459400, 459500) was used as the CYP1A2, CYP2C9, CYP2C19, and CYP3A4 inhibition kit.” left out
as §2, with “Upon completion of the reaction, the reactant was transferred onto the white plate, and then fluorescence was measured with a microplate reader (CYP 1A2 and CYP 2C19 excitation wavelength: 410 nm, absorption wavelength: 460 nm; CYP 2C9 and CYP 3A4 excitation wavelength: 409 nm, absorption wavelength: 530 nm).” left out

CYP2C9 = CYP2C9 (Homo sapiens (Human), UniProt P11712); experiment: CYP inhibition (BD GENTEST kit); assay type: in vitro ADME; details: pH 7.4, read-out: CYP inhibition (%) 2C9
Experimental: as §1, with “At this time, Invitrogen (P2862) was used as the CYP2D6 inhibition kit, and BD GENTEST (459100, 459300, 459400, 459500) was used as the CYP1A2, CYP2C9, CYP2C19, and CYP3A4 inhibition kit.” left out
as §2, with “Upon completion of the reaction, the reactant was transferred onto the white plate, and then fluorescence was measured with a microplate reader (CYP 1A2 and CYP 2C19 excitation wavelength: 410 nm, absorption wavelength: 460 nm; CYP 2C9 and CYP 3A4 excitation wavelength: 409 nm, absorption wavelength: 530 nm).” left out

CYP2D6 = CYP2D6 (Homo sapiens (Human), UniProt P10635); experiment: CYP inhibition (Invitrogen Vivid kit); assay type: in vitro ADME; details: probe Vivid CYP450 substrate, read-out: CYP inhibition (%) 2D6
Text: as §1
P450 BACULOSOMES® reagent and reproducer (100×) included in Invitrogen kit were diluted in Vivid® CYP450 reaction buffer (2×) at the concentration that matched the target CYP450. The prepared 2.5× sample (80 μL) and the diluted P450 BACULOSOMES® reagent mixture (100 μL) were mixed in each well of U-bottom 96-well plate, followed by pre-culture for 20 minutes. Vivid® CYP450 substrate and NADP+ (100×) were diluted in Vivid® CYP450 reaction buffer (2×) at the concentration that matched the target CYP450 and the substrate. Upon completion of the pre-culture, substrate-NADP (nicotinamide adenine dinucleotide phosphate) mixed solution (20 μL) was added thereto, followed by reaction for 1 hour. Upon completion of the reaction, the reactant was transferred onto the white plate, and then fluorescence was measured with a microplate reader (CYP 2D6 excitation wavelength: 400 nm, absorption wavelength: 502 nm). […]

[1] = CYP3A4 enzyme of BD GENTEST inhibition kit
[2] = CYP2C19 enzyme of BD GENTEST inhibition kit
[3] = CYP2C9 enzyme of BD GENTEST inhibition kit
[4] = P450 BACULOSOMES reagent (Invitrogen Vivid CYP2D6 kit P2862)
[5] = CYP3A4 enzyme of the BD GENTEST CYP3A4 inhibition kit
[6] = CYP2C19 enzyme of the BD GENTEST CYP2C19 inhibition kit
[7] = CYP2C9 enzyme of the BD GENTEST CYP2C9 inhibition kit
[8] = CYP2D6 P450 BACULOSOMES reagent (Invitrogen kit P2862)

Chain of CYP2C9 (P11712 whole entry): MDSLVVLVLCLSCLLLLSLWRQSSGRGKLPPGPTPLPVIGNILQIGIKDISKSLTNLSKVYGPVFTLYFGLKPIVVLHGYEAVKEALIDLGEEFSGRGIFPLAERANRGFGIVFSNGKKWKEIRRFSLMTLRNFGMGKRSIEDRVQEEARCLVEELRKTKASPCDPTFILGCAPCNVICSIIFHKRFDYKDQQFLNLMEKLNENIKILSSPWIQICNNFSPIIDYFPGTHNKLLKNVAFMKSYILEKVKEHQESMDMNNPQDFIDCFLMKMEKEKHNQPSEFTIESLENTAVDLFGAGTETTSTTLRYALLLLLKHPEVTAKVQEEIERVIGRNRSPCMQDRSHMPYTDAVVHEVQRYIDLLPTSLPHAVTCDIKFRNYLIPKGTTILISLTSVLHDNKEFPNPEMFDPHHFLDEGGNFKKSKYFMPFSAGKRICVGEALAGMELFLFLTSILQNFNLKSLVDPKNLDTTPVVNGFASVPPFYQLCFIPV
Chain of CYP1A2 (P05177 whole entry): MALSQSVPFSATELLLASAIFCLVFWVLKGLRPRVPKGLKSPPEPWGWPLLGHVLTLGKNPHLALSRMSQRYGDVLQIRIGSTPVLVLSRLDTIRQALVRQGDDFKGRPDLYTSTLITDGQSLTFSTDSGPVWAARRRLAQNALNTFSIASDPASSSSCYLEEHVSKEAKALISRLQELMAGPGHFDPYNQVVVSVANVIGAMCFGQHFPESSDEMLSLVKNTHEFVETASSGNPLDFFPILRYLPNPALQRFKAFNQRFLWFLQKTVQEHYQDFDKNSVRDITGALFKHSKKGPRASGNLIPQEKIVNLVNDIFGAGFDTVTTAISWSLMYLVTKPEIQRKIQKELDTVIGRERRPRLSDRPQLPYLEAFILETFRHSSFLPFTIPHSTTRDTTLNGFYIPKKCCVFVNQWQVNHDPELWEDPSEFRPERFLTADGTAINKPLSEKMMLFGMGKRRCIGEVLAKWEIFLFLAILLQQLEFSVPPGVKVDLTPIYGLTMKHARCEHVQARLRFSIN
Chain of CYP3A4 (P08684 whole entry): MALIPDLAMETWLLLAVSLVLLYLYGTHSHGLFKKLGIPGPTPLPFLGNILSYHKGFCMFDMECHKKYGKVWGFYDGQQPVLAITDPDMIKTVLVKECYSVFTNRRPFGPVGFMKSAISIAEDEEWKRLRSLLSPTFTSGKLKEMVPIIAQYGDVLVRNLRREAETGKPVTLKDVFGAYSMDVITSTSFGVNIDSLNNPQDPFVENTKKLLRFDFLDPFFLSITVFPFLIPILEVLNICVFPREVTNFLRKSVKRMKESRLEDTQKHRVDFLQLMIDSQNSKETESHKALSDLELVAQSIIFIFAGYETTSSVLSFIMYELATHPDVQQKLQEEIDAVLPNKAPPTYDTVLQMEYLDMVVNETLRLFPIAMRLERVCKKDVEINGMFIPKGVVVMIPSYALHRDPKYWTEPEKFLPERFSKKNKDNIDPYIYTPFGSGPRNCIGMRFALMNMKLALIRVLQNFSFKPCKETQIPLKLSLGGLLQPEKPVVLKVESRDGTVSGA
Chain of CYP2C19 (P33261 whole entry): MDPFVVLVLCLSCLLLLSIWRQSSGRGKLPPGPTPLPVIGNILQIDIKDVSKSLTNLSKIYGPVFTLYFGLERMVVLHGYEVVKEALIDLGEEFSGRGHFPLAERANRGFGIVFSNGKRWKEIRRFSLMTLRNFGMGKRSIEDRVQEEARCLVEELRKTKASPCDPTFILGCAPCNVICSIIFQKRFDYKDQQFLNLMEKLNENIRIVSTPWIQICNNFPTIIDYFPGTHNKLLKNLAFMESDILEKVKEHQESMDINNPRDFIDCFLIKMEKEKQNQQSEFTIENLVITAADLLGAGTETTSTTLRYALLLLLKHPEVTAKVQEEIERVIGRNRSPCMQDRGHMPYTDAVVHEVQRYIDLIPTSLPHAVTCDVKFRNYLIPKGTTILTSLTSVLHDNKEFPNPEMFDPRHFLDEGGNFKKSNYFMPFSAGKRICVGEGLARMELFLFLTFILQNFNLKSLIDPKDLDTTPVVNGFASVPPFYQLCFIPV
Chain of GPR40 (O14842 whole entry): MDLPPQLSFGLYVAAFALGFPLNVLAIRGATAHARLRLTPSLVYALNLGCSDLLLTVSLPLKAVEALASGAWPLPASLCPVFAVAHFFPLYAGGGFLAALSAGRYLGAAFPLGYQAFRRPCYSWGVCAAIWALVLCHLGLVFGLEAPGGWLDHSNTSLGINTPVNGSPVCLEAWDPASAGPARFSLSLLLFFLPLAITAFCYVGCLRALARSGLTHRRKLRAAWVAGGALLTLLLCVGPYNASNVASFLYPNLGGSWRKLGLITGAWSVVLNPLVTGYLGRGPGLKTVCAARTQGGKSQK
Chain of CYP2D6 (P10635 whole entry): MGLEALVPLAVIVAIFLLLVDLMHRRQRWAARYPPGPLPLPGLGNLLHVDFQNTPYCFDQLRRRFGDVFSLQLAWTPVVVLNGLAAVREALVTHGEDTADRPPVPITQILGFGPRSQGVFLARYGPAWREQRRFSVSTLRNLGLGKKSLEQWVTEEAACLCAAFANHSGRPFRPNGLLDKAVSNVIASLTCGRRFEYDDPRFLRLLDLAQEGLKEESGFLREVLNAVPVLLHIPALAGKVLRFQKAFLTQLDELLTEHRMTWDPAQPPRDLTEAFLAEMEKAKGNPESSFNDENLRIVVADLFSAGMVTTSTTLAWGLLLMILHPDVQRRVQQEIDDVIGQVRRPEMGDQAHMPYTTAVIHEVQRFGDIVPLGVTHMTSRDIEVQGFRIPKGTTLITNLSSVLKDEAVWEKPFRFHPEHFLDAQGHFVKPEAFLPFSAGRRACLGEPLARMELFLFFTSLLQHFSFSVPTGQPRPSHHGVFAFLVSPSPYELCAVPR

Row | SMILES | EC50 (GPR40; read-out: EC50) [nM] | inhibition at 30 min, 10 µM (CYP3A4; [1]) [%] | inhibition at 15 min, 10 µM (CYP1A2) [%] | inhibition at 30 min, 10 µM (CYP2C19; [2]) [%] | inhibition at 1.5 h, 10 µM (CYP2C9; [3]) [%] | inhibition at 1 h, 10 µM (CYP2D6; [4]) [%] | inhibition at 30 min, 10 µM (CYP3A4; [5]) [%] | inhibition at 30 min, 10 µM (CYP2C19; [6]) [%] | inhibition at 1.5 h, 10 µM (CYP2C9; [7]) [%] | inhibition at 1 h, 10 µM (CYP2D6; [8]) [%] | EC50 (GPR40; values in text, read-out: EC50, concentration promoting activation of GPR40 protein by 50%) [nM]
1 | CC#CC(CC(=O)O)c1ccc(OCc2cccc(C3=CCC(=O)CC3)c2)cc1 (centres unmarked) [Example 4, 3-(4-(3-(4-oxocyclohex-1-enyl)benzyloxy)phenyl)hex-4-ynoic acid] | > 300 | 35 | 0 | 45.4 | 41.5 | 19.3 | – | – | – | – | –
2 | CC#C[C@@H](CC(=O)O)c1ccc(OCc2ccc(CN3CCN(c4ccc(OC)cc4)CC3)cc2)cc1 [Example 40, (S)-3-(4-(4-((4-(4-methoxyphenyl)piperazine-1-yl)methyl)benzyloxy)phenyl)hex-4-ynoic acid] | 200 to 300 | 0 | 9.7 | 19.5 | 18.4 | 17.9 | – | – | – | – | –
3 | CC#C[C@@H](CC(=O)O)c1ccc(OCc2ccc(CN3CCc4ccccc4C3)cc2)cc1 [Example 21, (S)-3-(4-(4-((3,4-dihydroisoquinoline-2(1H)-yl)methyl)benzyloxy)phenyl)hex-4-ynoic acid] | 200 to 300 | 27.3 | 4 | 46.5 | 75.9 | 16.1 | – | – | – | – | –
4 | CC#C[C@@H](CC(=O)O)c1ccc(OCc2ccc(CN3CCN(c4ccc(OCOC)cc4)CC3)cc2)cc1 [Example 29, (S)-3-(4-(4-((4-(4-(methoxymethoxy)phenyl)piperazine-1-yl)methyl)benzyloxy)phenyl)hex-4-ynoic acid] | 200 to 300 | 0 | 0.7 | 9.7 | 26.7 | 18.2 | – | – | – | – | –
5 | CC#CC(CC(=O)O)c1ccc(OCc2ccc(C3=CCC4(CC3)OCCO4)cc2)cc1 (centres unmarked) [Example 3] | > 300 | – | 0 | – | – | – | 33.1 | 19.4 | 21.1 | 6 | –
6 | CC#C[C@@H](CC(=O)O)c1ccc(OCc2ccc(CN3CCC4(C=Cc5ccccc54)CC3)cc2)cc1 [Comparative Example 2, (3S)-3-(4-{[4-(1′H-spiro[indene-1,4′-piperidine]-1′-ylmethyl)benzyl]oxy}phenyl)hex-4-inoic acid, reference compound] | > 300 | 42 | 0 | 34.5 | 43.9 | 63.2 | – | – | – | – | –
7 | CC#C[C@@H](CC(=O)O)c1ccc(OCc2ccc(CN3CCC(c4ccccc4)CC3)cc2)cc1 [Example 26, (S)-3-(4-(4-((4-phenylpiperidine-1-yl)methyl)benzyloxy)phenyl)hex-4-ynoic acid] | > 300 | 14.1 | 0.7 | 13.2 | 31.5 | 2.3 | – | – | – | – | –
8 | CC#C[C@@H](CC(=O)O)c1ccc(OCc2ccc(CN3Cc4ccccc4C3)cc2)cc1 [Example 38, L-lysine (S)-3-(4-(4-(isoindoline-2-ylmethyl)benzyloxy)phenyl)hex-4-ynoate] | – | – | 2.2 | – | – | – | 18.1 | 13.2 | 34.4 | 15.6 | –
9 | CC#C[C@@H](CC(=O)O)c1ccc(OCc2ccc(CN3CCN(c4ccc(OCCCS(C)(=O)=O)cc4)CC3)cc2)cc1 [Example 36, (S)-3-(4-(4-((4-(4-(3-(methylsulfonyl)propoxy)phenyl)piperazine-1-yl)methyl)benzyloxy)phenyl)hex-4-ynoic acid] | > 300 | 11.5 | 16.6 | 10.8 | 0 | 1.8 | – | – | – | – | –
10 | CC#CC(CC(=O)O)c1ccc(OCc2cccc(C3=CCC4(CC3)OCCO4)c2)cc1 (centres unmarked) [Example 1, 3-(4-(3-(1,4-dioxaspiro[4,5]dec-7-en-8-yl)benzyloxy)phenyl)hex-4-ynoic acid] | – | 12.7 | 0 | 18.3 | 42.8 | 1.9 | – | – | – | – | –
11 | CC#C[C@@H](CC(=O)O)c1ccc(OCc2cccc(C3=CCC4(CC3)OCCO4)c2)cc1 [Example 7, (3S)-3-(4-(3-(1,4-dioxaspiro[4,5]dec-7-en-8-yl)benzyloxy)phenyl)hex-4-ynoic acid] | < 200 | 15.5 | 4.3 | 3.7 | 47.1 | 13.9 | – | – | – | – | < 200
